# Measurements published in ChEMBL document CHEMBL1201862, “PubChem BioAssay data set” (2004).
# The source made the active and inactive calls.
# What was measured:
# Interleukin-8 [1] = target: T1, Interleukin-8 (Homo sapiens, UniProt P10145); assay: Dose Response confirmation of uHTS small molecule hits for cystic fibrosis induced NFkb Inhibitors in a TNFa-induced IL8 counterscreen.; format: functional; conditions: read-out: IC50_Mean
# T1 sequence (P10145 whole entry): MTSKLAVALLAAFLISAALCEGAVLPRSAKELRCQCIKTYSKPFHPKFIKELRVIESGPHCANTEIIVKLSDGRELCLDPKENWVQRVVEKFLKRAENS
# Interleukin-8 [2] = target: T1, Interleukin-8; assay: Dose Response confirmation of uHTS small molecule hits for cystic fibrosis induced NFkb Inhibitors in a PAF-induced IL8 counterscreen.; format: functional; conditions: read-out: IC50_Mean
# HeLa = assay: HeLa cell cytotoxicity, dose response, cytotoxicity control for MITF activator project, CellTiter-Glo luminescence, cherry-pick samples (AID 540259); format: functional, cell-based; conditions: Homo sapiens
# Cytochrome P450 2C19 = Cytochrome P450 2C19 (Homo sapiens, UniProt P33261); assay: Cytochrome panel assay with activity outcomes. Panel member name: p450-cyp2c19 Compounds with AC50 equal or less than 10 uM are considered active; format: functional; conditions: read-out: AC50
# [3] = target: T2, DNA repair protein RAD52 homolog (Homo sapiens, UniProt P43351); format: functional, biochemical
# T2 sequence (P43351 whole entry): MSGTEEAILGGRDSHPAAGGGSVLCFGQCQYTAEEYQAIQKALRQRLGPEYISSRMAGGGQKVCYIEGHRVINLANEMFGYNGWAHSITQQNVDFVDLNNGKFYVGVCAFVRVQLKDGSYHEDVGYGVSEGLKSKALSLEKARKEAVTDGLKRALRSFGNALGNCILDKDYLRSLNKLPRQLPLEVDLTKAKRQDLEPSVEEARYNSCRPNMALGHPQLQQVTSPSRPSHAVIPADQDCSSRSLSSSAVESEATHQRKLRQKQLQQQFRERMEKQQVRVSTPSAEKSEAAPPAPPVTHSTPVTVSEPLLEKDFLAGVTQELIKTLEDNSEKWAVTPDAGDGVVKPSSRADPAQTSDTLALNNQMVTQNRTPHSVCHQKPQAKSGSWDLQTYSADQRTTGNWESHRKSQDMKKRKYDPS
# [4] = target: T3, Ubiquitin-conjugating enzyme E2 N (Homo sapiens, UniProt P61088); format: functional;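 further: Dose-response confirmation in a TR-FRET assay detecting UBC13-driven polyubiquitin chain formation, inhibition measured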
# T3 sequence (P61088 whole entry): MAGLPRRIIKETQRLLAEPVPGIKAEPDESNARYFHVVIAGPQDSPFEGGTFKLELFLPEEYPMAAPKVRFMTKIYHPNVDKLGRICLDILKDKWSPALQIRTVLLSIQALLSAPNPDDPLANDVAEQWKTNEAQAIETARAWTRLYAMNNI
# [5] = target: Hepatocyte nuclear factor 4-alpha (Homo sapiens, UniProt P41235); format: functional, cell-based;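 further: biochemical luminescence-based dose-response counterscreen measuring inhibition of HNF4 dimerization, run alongside a screen for blockers of ABHD5–perilipin-5 interaction; split luciferase complementation of HNF4 fusion proteins in cell lysate measuring dimerization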
# [6] = target: FAD-linked sulfhydryl oxidase ALR (Homo sapiens, UniProt P55789); assay: inhibitors of human ALR sulfhydryl oxidase, dose response, biochemical, H2O2 detection, luminescence, cherry-pick (AID 493248)
# [7] = microbe, parasite or virus in culture; format: functional; conditions: Mycobacterium tuberculosis
# [8] = target: 26S proteasome non-ATPase regulatory subunit 14 (Homo sapiens, UniProt O00487); assay: inhibition of proteasome subunit RPN11 – biochemical, fluorescence polarization, uHTS hits, confirmation (AID 602368); format: functional
# [9] = target: T4, Low molecular weight phosphotyrosine protein phosphatase (Homo sapiens, UniProt P24666); format: functional; conditions: read-out: IC50_Mean
# T4 sequence (P24666 whole entry): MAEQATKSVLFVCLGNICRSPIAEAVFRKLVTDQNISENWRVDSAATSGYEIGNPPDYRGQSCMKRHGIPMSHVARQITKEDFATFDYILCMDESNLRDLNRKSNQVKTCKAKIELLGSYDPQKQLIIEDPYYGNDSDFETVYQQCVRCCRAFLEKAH
# Prothrombin = Prothrombin (Bos taurus, UniProt P00735); assay: thrombin inhibition, dose response, biochemical, fluorescence polarization, uHTS hits (AID 602369); format: functional
# [10] = target: 72 kDa type IV collagenase (Homo sapiens, UniProt P08253); assay: Dose Response validation of uHTS RPN11 inhibitor hits using a MMP-2 Fluorescence assay.; format: functional
# [11] = target: T4, Low molecular weight phosphotyrosine protein phosphatase; format: functional; conditions: read-out: IC50_Mean; remark: listed apart in the source
# [12] = cytotoxicity toward NIH3T3 fibroblasts, dose response, counter-screen, cell-based, ATP luminescence, mouse fibroblasts (AID 2010); format: functional;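 further: cells exposed to compound for about 90 hours before reading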
# Streptococcus = assay: Group A Streptococcus viability loss, dose response, counter-screen for streptokinase expression inhibitor project, luminescence, BacTiterGlo (AID 1915); format: functional, organism-based;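 further: potency for reduction of bacterial viability or growth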
# cells [13] = format: functional, cell-based
# cells [14] = format: functional, cell-based; remark: listed apart in the source
# [15] = NIH-3T3 fibroblast cytotoxicity, dose response, cytotoxicity control, cell-based, fluorescence, Alamar Blue, secondary assay (AID 2327); format: functional;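 further: NIH-3T3 mouse fibroblasts cultured with fluconazole at 8 µg/mL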
# HEK293 [16] = assay: HEK cell cytotoxicity by LDH release, dose response, cytotoxicity control for IDE activator project, fluorescence, HEK cells (AID 588440); format: functional, cell-based; conditions: Homo sapiens;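 further: cytotoxicity by LDH release measuring loss of membrane integrity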
# Insulin-degrading enzyme [17] = target: T5, Insulin-degrading enzyme (Homo sapiens, UniProt P14735); assay: activators of recombinant IDE enzyme, dose response, counter-screen for IDE activator project, biochemical, fluorescence polarization (AID 588681)
# T5 sequence (P14735 whole entry): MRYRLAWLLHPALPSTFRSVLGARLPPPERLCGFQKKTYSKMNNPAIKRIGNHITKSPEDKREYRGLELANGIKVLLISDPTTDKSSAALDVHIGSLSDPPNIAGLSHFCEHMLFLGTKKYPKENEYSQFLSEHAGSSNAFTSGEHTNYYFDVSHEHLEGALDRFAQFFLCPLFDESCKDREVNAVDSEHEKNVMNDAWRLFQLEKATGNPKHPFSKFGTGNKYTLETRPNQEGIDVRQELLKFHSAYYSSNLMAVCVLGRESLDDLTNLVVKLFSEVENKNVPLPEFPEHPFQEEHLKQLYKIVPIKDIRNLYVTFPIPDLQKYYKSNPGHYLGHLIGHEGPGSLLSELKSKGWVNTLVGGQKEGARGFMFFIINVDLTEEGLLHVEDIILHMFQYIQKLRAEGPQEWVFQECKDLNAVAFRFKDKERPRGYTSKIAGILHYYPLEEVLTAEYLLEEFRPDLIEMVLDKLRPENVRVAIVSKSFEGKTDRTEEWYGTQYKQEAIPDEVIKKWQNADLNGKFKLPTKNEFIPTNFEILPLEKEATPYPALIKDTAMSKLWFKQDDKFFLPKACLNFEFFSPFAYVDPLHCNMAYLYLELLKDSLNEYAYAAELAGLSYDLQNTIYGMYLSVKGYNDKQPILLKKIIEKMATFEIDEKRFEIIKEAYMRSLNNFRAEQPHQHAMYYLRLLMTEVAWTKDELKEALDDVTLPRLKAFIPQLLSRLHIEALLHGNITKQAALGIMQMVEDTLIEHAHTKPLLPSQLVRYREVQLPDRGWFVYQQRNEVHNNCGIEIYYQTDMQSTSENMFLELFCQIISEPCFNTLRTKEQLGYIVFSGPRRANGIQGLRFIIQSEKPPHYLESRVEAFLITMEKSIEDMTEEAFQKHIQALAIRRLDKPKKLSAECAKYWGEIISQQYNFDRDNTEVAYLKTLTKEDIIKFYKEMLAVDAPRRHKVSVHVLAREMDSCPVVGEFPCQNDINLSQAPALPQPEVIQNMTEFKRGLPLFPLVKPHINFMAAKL
# Insulin-degrading enzyme [18] = target: T5, Insulin-degrading enzyme; assay: activators of endogenous IDE in HEK cells, dose response, cell-based, fluorescence polarization (AID 588439); format: functional
# [19] = inhibitors of intracellular T. cruzi replication, confirmation, NIH3T3 host cells, beta-gal luminescence (AID 2044); format: functional, cell-based;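 further: intracellular parasites grown in NIH/3T3 mouse fibroblasts as host cells; luminescent beta-galactosidase reporter signal from transgenic T. cruzi replicating inside host cells; inhibitors lower the luminescence signal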
# [20] = C. albicans growth with fluconazole, confirmation, fluorescence, retest (AID 2467); format: functional, cell-based
# [21] = cytotoxicity in HEK-293T cells, dose response, cytotoxicity control for TCR NF-kB inhibitor project, luminescence, T-cell screen hits (AID 489026); format: functional, cell-based;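 further: cells exposed to compound about 14 hours before the viability readout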
# [22] = test system: Streptococcus sp. 'group A'; assay: growth inhibition of control SK(-) GAS strain, dose response, counter-screen for streptokinase expression inhibitor project, luminescence, kanamycin, BacTiterGlo, confirmation (AID 1900); format: functional, organism-based
# [23] = target: T6, RNA-binding protein pos-1 (Caenorhabditis elegans, UniProt G5EF15); assay: inhibitors of POS-1/mex-3 RNA binding, dose response, biochemical, fluorescence polarization (AID 1964);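 further: purified POS-1 fused to maltose binding protein made in E. coli; potency of compounds blocking POS-1 binding to fluorescent RNA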
# T6 sequence (G5EF15 whole entry): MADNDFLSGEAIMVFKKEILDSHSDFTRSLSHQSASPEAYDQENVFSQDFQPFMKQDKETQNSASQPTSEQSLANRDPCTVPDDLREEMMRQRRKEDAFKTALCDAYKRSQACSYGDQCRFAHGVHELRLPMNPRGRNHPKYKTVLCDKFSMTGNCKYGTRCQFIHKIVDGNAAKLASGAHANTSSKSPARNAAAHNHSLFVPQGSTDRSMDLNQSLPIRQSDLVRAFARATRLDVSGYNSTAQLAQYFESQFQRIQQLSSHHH
# [24] = target: Heat shock protein HSP 90-alpha (Homo sapiens, UniProt P07900); format: functional, organism-based
# HEK293 [25] = assay: optical interference in Abeta FP readout, dose response, artefact control for IDE activator project, biochemical, fluorescence polarization (AID 588442); format: functional, cell-based; conditions: Homo sapiens
# [26] = target: Protein disulfide-isomerase (Homo sapiens, UniProt P07237); assay: PDI inhibitors, insulin aggregation turbidity, dose response, biochemical, absorbance, cherry-picked samples (AID 602350); format: functional
# Chain of Protein disulfide-isomerase (P07237 whole entry): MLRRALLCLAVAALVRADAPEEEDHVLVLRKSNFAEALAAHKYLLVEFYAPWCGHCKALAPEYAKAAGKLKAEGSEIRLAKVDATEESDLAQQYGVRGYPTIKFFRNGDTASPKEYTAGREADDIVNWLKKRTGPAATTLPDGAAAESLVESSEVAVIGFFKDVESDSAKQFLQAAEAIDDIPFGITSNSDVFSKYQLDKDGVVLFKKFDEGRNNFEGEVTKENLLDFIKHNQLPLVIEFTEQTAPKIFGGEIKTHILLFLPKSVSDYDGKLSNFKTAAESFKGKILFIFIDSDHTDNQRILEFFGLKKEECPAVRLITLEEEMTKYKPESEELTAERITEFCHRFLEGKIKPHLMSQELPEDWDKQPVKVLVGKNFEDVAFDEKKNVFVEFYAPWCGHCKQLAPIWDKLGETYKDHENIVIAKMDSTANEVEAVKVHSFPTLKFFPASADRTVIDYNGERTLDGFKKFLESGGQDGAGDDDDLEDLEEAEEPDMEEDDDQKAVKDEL
# Chain of Cytochrome P450 2C19 (P33261 whole entry): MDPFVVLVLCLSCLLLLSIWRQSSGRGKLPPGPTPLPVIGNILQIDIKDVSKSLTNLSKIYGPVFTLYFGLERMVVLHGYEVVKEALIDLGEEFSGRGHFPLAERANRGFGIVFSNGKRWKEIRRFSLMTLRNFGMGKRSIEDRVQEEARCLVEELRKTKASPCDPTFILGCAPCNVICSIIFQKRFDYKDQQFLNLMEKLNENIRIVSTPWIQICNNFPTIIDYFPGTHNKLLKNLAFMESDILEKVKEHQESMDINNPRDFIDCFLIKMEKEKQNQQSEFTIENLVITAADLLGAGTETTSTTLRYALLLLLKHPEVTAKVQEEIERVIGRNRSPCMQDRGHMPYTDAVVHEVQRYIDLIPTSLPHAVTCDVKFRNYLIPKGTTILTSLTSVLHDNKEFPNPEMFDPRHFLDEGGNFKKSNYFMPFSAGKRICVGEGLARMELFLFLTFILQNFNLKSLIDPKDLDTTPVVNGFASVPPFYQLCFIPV
# Chain of 72 kDa type IV collagenase (P08253 whole entry): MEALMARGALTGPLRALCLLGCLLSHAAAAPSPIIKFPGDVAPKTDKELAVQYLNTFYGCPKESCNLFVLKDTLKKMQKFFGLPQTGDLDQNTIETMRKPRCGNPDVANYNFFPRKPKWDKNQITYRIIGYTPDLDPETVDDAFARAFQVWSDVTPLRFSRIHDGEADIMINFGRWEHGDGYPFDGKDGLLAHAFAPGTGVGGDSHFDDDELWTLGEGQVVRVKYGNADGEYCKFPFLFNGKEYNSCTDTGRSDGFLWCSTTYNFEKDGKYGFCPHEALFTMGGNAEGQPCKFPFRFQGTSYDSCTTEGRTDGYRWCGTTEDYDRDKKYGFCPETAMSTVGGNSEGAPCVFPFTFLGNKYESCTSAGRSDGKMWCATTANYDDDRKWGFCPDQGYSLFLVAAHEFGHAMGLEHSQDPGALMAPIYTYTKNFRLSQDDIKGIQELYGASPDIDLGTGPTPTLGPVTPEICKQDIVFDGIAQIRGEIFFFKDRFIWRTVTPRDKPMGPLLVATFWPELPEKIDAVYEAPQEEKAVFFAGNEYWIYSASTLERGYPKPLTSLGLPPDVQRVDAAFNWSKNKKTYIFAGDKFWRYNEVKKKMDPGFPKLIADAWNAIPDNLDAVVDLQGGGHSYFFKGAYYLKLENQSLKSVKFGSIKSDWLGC
# Chain of FAD-linked sulfhydryl oxidase ALR (P55789 whole entry): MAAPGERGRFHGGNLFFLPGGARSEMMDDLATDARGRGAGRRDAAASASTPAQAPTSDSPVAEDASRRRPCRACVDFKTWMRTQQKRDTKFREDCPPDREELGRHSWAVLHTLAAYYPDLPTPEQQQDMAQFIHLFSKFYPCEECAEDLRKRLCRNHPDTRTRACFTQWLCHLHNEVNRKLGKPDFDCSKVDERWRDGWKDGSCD
# Chain of 26S proteasome non-ATPase regulatory subunit 14 (O00487 whole entry): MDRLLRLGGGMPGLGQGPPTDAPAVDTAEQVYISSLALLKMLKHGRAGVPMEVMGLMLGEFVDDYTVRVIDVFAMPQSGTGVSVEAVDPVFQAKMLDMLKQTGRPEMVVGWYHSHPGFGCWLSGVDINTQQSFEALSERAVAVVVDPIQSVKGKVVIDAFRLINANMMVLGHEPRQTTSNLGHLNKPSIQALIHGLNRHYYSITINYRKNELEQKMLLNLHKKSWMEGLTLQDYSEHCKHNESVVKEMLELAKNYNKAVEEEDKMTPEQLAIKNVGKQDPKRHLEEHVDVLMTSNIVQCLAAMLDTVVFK
# Chain of Hepatocyte nuclear factor 4-alpha (P41235 whole entry, the tested form may be a part): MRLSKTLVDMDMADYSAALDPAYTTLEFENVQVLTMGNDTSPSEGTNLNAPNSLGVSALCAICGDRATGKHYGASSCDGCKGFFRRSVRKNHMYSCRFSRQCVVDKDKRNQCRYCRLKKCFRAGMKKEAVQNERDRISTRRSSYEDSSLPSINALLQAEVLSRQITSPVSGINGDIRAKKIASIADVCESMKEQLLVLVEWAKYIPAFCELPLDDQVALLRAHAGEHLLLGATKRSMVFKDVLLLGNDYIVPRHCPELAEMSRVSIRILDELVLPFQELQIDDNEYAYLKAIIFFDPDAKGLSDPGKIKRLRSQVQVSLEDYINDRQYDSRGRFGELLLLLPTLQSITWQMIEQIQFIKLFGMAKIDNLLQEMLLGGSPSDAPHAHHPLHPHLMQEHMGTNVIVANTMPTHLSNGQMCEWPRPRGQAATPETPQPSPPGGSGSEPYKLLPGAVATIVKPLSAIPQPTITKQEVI
compound,measurement,setting,value
O=C(Nc1cccc2[nH]ncc12)c1ccc(F)cc1,IC50,Interleukin-8 [1],> 79 µM (inactive)
same,IC50,Interleukin-8 [2],13.8 µM (inactive)
same,AC50,HeLa,52.8 µM (active)
same,AC50,Cytochrome P450 2C19,14.1 µM (inconclusive)
CCSc1ccc2c(c1)N(CCCN1CCN(C)CC1)c1ccccc1S2,AC50,[3],14.9 µM (active)
same,IC50,[4],> 20 µM (inactive)
same,IC50,[5],29.9 µM (inactive)
same,AC50,[6],1.09 µM (active)
same,CC50,[7],16.3 µM (active)
COc1ccc(NC(=O)CCn2c(=S)[nH]c3ccccc3c2=O)cc1Cl,IC50,[8],26.3 µM (active)
same,IC50,[9],68.3 µM (inactive)
same,IC50,Prothrombin,> 100 µM (inactive)
same,IC50,[10],4.32 µM (active)
same,IC50,[11],12 µM (active)
O=C(N/N=C\c1c(O)ccc2ccccc12)c1cncc(Br)c1,EC50,[12],7.07 µM (active)
same,EC50,Streptococcus,3.59 µM (active)
same,EC50,cells [13],10.3 µM (active)
same,EC50,cells [14],86.8 µM (active)
same,EC50,[15],8.52 µM (inconclusive)
same,IC50,HEK293 [16],> 89.3 µM (inactive)
same,EC50,Insulin-degrading enzyme [17],> 54.7 µM (inactive)
same,EC50,Insulin-degrading enzyme [18],> 54.7 µM (inactive)
same,EC50,[19],792 nM (active)
same,EC50,[20],342 nM (active)
same,IC50,[21],> 80 µM (inactive)
same,EC50,[22],1.4 µM (active)
same,EC50,[23],> 300 µM (not active)
same,AC50,[24],4.06 µM (active)
same,EC50,HEK293 [25],12.4 µM (inactive)
CCC1CCCCN1S(=O)(=O)c1ccc(S(=O)(=O)N2CCN(S(=O)(=O)CC)CC2)cc1 (centres undefined),IC50,HEK293 [16],> 9.91 µM (active)
same,EC50,Insulin-degrading enzyme [17],> 54.7 µM (inactive)
same,EC50,Insulin-degrading enzyme [18],> 54.7 µM (inactive)
same,EC50,HEK293 [25],> 55.9 µM (inactive)
C[C@@H]1O[C@@H](Oc2c(-c3ccc(O)c(O)c3)oc3cc(O)cc(O)c3c2=O)[C@H](O)[C@H](O)[C@H]1O,AC50,[26],5.59 µM (active)
